Molecular target: T1, Alpha-1,4-glucan:maltose-1-phosphate maltosyltransferase (Mycobacterium tuberculosis (strain ATCC 25618 / H37Rv), UniProt P9WQ17)
T1 sequence (P9WQ17 whole entry): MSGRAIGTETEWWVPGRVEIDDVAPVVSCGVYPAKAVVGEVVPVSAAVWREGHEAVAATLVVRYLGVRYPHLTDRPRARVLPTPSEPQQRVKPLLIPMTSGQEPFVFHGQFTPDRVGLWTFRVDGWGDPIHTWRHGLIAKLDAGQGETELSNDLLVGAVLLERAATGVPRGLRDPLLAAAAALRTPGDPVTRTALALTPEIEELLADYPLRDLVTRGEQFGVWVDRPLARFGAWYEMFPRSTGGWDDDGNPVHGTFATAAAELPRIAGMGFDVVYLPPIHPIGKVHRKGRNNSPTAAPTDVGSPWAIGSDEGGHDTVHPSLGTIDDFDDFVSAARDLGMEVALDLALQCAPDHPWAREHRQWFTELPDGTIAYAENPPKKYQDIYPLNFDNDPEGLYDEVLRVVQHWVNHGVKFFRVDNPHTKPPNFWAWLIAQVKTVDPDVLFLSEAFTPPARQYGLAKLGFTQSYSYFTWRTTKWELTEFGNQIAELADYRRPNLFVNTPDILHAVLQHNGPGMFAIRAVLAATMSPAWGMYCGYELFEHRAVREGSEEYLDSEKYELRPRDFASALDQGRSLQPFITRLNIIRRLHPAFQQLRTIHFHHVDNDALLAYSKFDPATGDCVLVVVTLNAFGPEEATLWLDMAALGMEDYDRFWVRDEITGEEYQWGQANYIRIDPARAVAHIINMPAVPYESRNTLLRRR
Test: Inhibition of recombinant Mycobacterium tuberculosis H37Rv GlgE expressed in Escherichia coli BL21 (DE3) rosetta cells using maltose-1-phosphate as substrate measured every 5 secs for 30 mins by purine nucleoside phosphorylase-coupled assay

`O=P(O)(O)C[C@H]1O[C@H](CO)[C@@H](O[C@H]2O[C@H](CO)[C@@H](O)[C@H](O)[C@H]2O)[C@H](O)[C@H]1O` showed an IC50 of 230 µM.

Reference: ChEMBL document CHEMBL3112529, “Synthesis of a C-phosphonate mimic of maltose-1-phosphate and inhibition studies on Mycobacterium tuberculosis GlgE” (Bioorg Med Chem, 2014)
